# Laboratory results as given in ChEMBL document CHEMBL3137667, “[Drug-induced liver injury; fourteenth updated edition of the bibliographic database of liver injuries and related drugs]” (Gastroenterol Clin Biol, 2004).
# How the values were obtained:
# [1] = Times to onset, minimal and maximal, observed in the indexed observations. [column 'DELAI' in source]; details: human
# [2] = Highest frequency of acute liver toxicity observed during clinical trials, expressed as a percentage. [column '% AIGUE' in source]; details: human
# [3] = Comments (NB not yet translated). [column 'COMMENTAIRES' in source]; details: human
# [4] = human
# [5] = human; remark: listed apart in the source
# [6] = human; remark: listed apart in the source
# [7] = Proposed mechanism(s) of liver damage. [column 'MEC' in source]; details: human
# [8] = human; remark: listed apart in the source
# [9] = human; remark: listed apart in the source
# [10] = human; remark: listed apart in the source
# [11] = human; remark: listed apart in the source
# [12] = human; remark: listed apart in the source
# [13] = human, serum
# [14] = human; remark: listed apart in the source
# [15] = Highest frequency of moderate liver toxicity observed during clinical trials, expressed as a percentage. [column '% BIOL' in source]; details: human
# [16] = human, serum, 4383 h
# [17] = human, serum; remark: listed apart in the source
# 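For Hepatotoxicity (association with vascular disease) in this document: count of indexed literature references reporting vascular liver injury in humans, e.g. peliosis hepatitis, hepatic veno-occlusive disease or Budd-Chiari syndrome.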
# 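For Hepatotoxicity (benign tumour) in this document: value is a count of indexed literature references citing a benign tumour confirmed by histopathology.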
# 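For Hepatotoxicity (choleostasis) in this document: human cholestatic liver injury, shown by histopathology or by peak ALT or AST elevation over alkaline phosphatase ratio below 2, value counts indexed literature reports.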
# 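For Hepatotoxicity (chronic liver disease) in this document: chronic liver injury confirmed by histopathology or persistently raised serum aminotransferase activity beyond 6 months, value given as the count of indexed literature references.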
# 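For Hepatotoxicity (cirrhosis) in this document: value is a count of indexed literature references reporting cirrhosis confirmed by histopathology.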
# 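For Hepatotoxicity (cytolytic) in this document: human cytolytic liver injury, shown by histopathology or by a ratio above 5 of peak ALT or AST elevation to alkaline phosphatase elevation, value counts indexed references.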
# 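For Hepatotoxicity (granulomatous hepatitis) in this document: value is a count of indexed literature references reporting granulomatous liver disease confirmed by histopathology.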
# 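For Hepatotoxicity (malignant tumour) in this document: malignant tumour confirmed by histopathology, value gives the count of indexed literature references reporting it.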
# 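For Hepatotoxicity (severe hepatitis) in this document: human clinical data: severe hepatitis, meaning potentially life-threatening liver failure or clinically observed cases, the value counts how many indexed literature references report it.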
# 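For Hepatotoxicity (steatosis) in this document: steatosis confirmed by histopathology, value is the count of indexed references.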
Structure (SMILES),Hepatotoxicity (time to onset) [1],Hepatotoxicity (acute) [2],Hepatotoxicity (comment) [3],Hepatotoxicity (choleostasis) [4],Hepatotoxicity (cytolytic) [5],Hepatotoxicity (cirrhosis) [6],Hepatotoxicity (mechanism) [7],Hepatotoxicity (steatosis) [8],Hepatotoxicity (severe hepatitis) [9],Hepatotoxicity (malignant tumour) [10],Hepatotoxicity (association with vascular disease) [11],Hepatotoxicity (granulomatous hepatitis) [12],Hepatotoxicity (moderate) [13],Hepatotoxicity (benign tumour) [14],Hepatotoxicity (moderate) [15],Hepatotoxicity (chronic liver disease) [16],Hepatotoxicity (acute) [17],other results
CCC(C)n1ncn(-c2ccc(N3CCN(c4ccc(OCC5COC(Cn6cncn6)(c6ccc(Cl)cc6Cl)O5)cc4)CC3)cc2)c1=O (stereo unspecified) [ITRACONAZOLE],5 days - 7 months,30%,CHOLANGITE DUCTOPENIE HNF,10,10,0,Dose-dependant,1,1,0,0,0,55,1,91.7%,0,18,–
Nc1nnc(-c2cccc(Cl)c2Cl)c(N)n1 [LAMOTRIGINE],5 days - 3 months,0%,DUCTOPENIE CHOLESTASE_PROLONGEE,1,12,0,Allergic,0,9,0,0,0,7,0,7.7%,0,17,–
NCCCC[C@H](N[C@@H](CCc1ccccc1)C(=O)O)C(=O)N1CCC[C@H]1C(=O)O [LISINOPRIL ANHYDROUS],9 days - 5 months,0%,AC_ANTI-ML RC/LISINOPRIL,0,2,0,Allergic,0,1,0,0,0,4,0,7.7%,1,3,–
COc1ccc2[nH]cc(CCNC(C)=O)c2c1 [MELATONIN],3 weeks,0%,AC_ANTI-ML,0,1,0,Allergic,0,0,0,0,0,0,0,0%,0,1,–
COc1ccc2cc([C@H](C)C(=O)O)ccc2c1 [NAPROXEN],2 days - 2 months,–,RC/FENOPROFENE,–,–,0,–,1,–,0,0,–,13,0,–,0,19,Hepatotoxicity (acute) ([2]; Liver): 1.1%; Hepatotoxicity (choleostasis) ([4]; Liver): 8; Hepatotoxicity (cytolytic) ([5]; Liver): 8; Hepatotoxicity (mechanism) ([7]; Liver): Allergic; Hepatotoxicity (severe hepatitis) ([9]; Liver): 4; Hepatotoxicity (granulomatous hepatitis) ([12]; Liver): 1; Hepatotoxicity (moderate) ([15]; Liver): 9.5%
Fc1ccc([C@@H]2CCNC[C@H]2COc2ccc3c(c2)OCO3)cc1 [PAROXETINE],6 days - 15 months,2%,AC_ANTI-N I/ATRIUM* RC/DOSULEPINE,2,5,0,Allergic,0,1,0,0,0,6,0,11%,1,8,–
CC(=O)Nc1ccc(OCC(O)CNC(C)C)cc1 (stereo unspecified) [PRACTOLOL],16 months - 4 years,0%,AC_ANTI-N/-M #CBP,0,0,1,Allergic,0,0,0,0,0,0,0,0%,0,0,–
C[C@]12C=CC(=O)C=C1CC[C@@H]1[C@@H]2C(=O)C[C@@]2(C)[C@H]1CC[C@]2(O)C(=O)CO [PREDNISONE],10 months,0%,AGGRAVATION/REACTIVATION_HVB HNF LITHIASE,0,0,0,Dose-dependant,0,1,0,0,0,1,1,80%,0,0,–
CN(C)CCCN1c2ccccc2Sc2ccccc21 [PROMAZINE],2 days - 2 months,0%,RC/CHLORPROMAZINE,6,0,0,Allergic,0,0,0,0,0,1,0,0%,0,6,–
CC(C)NCC(O)COc1cccc2ccccc12 (stereo unspecified) [PROPRANOLOL],1 month - 9 months,0%,CHOLANGIOLITE ENCEPHALOPATHIE,3,4,0,Allergic,0,0,0,0,0,5,0,10%,0,5,–
CCCc1cc(C(N)=S)ccn1 [PROTIONAMIDE],3 months - 1 year,2.5%,I/PILULE,0,4,0,Dose-dependant,0,2,0,0,0,8,0,13%,0,7,–
CCc1nc(N)nc(N)c1-c1ccc(Cl)cc1 [PYRIMETHAMINE],4 hours - 4 months,0%,I/LORAZEPAM,1,0,0,Dose-dependant,1,0,0,0,1,8,0,28.6%,0,1,–
CN(CCOc1ccc(CC2SC(=O)NC2=O)cc1)c1ccccn1 (stereo unspecified) [ROSIGLITAZONE],1 week - 4 years,0%,CHOLANGITE,2,7,0,Allergic,0,5,0,0,3,8,0,0.2%,1,10,–
